Laboratory results as given in patent publication US20130143738A1, “HERBICIDAL COMPOSITION CONTAINING CERTAIN PYRIDINE CARBOXYLIC ACIDS AND (2,4-DICHLOROPHENOXY)ACETIC ACID” (DOW AGROSCIENCES LLC, priority 2011, published 2013).
Where two headings read alike, the source gives them in different places.

Tests used:
[1] = system: LOLMU - Italian ryegrass (Lolium perenne L. ssp. multiflorum (Lam.) Husnot); details: 14 DAA, greenhouse, foliar
Protocol: (§1) Seeds or nutlets of the desired test plant species were planted in a soil matrix prepared by mixing a sandy loam soil (28.6 percent silt, 18.8 percent clay, and 52.6 percent sand, with a pH of about 5.8 and an organic matter content of about 1.8 percent) and calcareous grit in an 80 to 20 ratio. The soil matrix was contained in plastic pots with a surface area of 84.6 cm^2 and a volume of 560 cubic centimeters (cm^3). […] The plants were grown for 7-31 days (d) in a greenhouse with an approximate 15 hour (h) photoperiod which was maintained at about 23-29° C. during the day and 22-28° C. during the night. Nutrients (Peters Excel® 15-5-15 5-Ca2-Mg) and water were added on a regular basis and supplemental lighting was provided with overhead metal halide 1000-Watt lamps as necessary. The plants were employed for testing when they reached the first, second, or third true leaf stage.
(§2) Treatments consisted of the potassium (K^+) salt of 4-amino-3-chloro-6-(4-chloro-2-fluoro-3-methoxy-phenyl)pyridine-2-carboxylic acid formulated as an SL or the benzyl ester of 4-amino-3-chloro-6-(4-chloro-2-fluoro-3-methoxy-phenyl)pyridine-2-carboxylic acid as technical material, and 2,4-D dimethylamine (DMA) salt applied as Weedar® 64 EC alone and in combination. Forms of the pyridine carboxylic acid and 2,4-D were applied on an acid equivalent basis.
(§3) For treatments comprised of formulated compounds, measured amounts of compounds were placed individually in 25 mL glass vials and diluted in a volume of 1.5% (v/v) Agri-dex® crop oil concentrated to obtain 6× stock solutions. […] Application solutions were prepared by adding an appropriate amount of each stock solution (typically 2 mL) and diluted to the appropriate final concentrations with the addition of an appropriate amount of an aqueous mixture of 1.5% (v/v) crop oil concentrate and an appropriate amount of water so that the final spray solutions contained 1.25+/−0.05% (v/v) crop oil concentrate.
(§4) For treatments comprised of formulated and technical compounds, weighed amounts of the technical materials were placed individually in 25 mL glass vials and dissolved in a volume of 97:3 v/v acetone/DMSO to obtain 6× stock solutions, and measured amounts of the formulated compounds were placed individually in 25 mL glass vials and diluted in a volume of 1.5% (v/v) crop oil concentrate to obtain 6× stock solutions. […] Application solutions were prepared by adding an appropriate amount of each stock solution (eg, 2 mL) and diluted to the appropriate final concentrations with the addition of an appropriate amount of an aqueous mixture of 1.5% (v/v) crop oil concentrate and an appropriate amount of water so that the final spray solutions contained 1.25% (v/v) crop oil concentrate. The final acetone and DMSO concentrations of the application solutions containing technical material were 16.2% and 0.5%, respectively.
(§5) All stock solutions and applications solutions were visually inspected for compound compatibility prior to application. Compound requirements are based upon a 12 mL application volume at a rate of 187 liters per hectare (L/ha). Application solutions were applied to the plant material with an overhead Mandel track sprayer equipped with 8002E nozzles calibrated to deliver 187 L/ha over an application area of 0.503 square meters (m^2) at a spray height of 18 to 20 inches above the average plant canopy height. Control plants were sprayed in the same manner with the solvent blank.
(§6) The treated plants and control plants were placed in a greenhouse as described above and watered by sub-irrigation to prevent wash-off of the test compounds. After approximately 2 weeks, the condition of the test plants as compared with that of the untreated plants was determined visually and scored on a scale of 0 to 100 percent where 0 corresponds to no injury and 100 corresponds to complete kill.

[2] = system: ELEIN - goosegrass (Eleusine indica (L.) Gaertn.); details: 14 DAA, greenhouse, foliar
Protocol: as §1, §2, §3, §4, §5, §6

[3] = system: PANDI - fall panicum (Panicum dichotomiflorum Michx.); experiment: Greenhouse evaluation of postemergence herbicidal activity, foliar treatment, PANDI; assay type: in vivo; details: 16 DAA
From the text: Seeds or nutlets of the desired test plant species were planted in a soil matrix prepared by mixing a sandy loam soil (28.6 percent silt, 18.8 percent clay, and 52.6 percent sand, with a pH of about 5.8 and an organic matter content of about 1.8 percent) and calcareous grit in an 80 to 20 ratio. The soil matrix was contained in plastic pots with a surface area of 84.6 cm^2 and a volume of 560 cubic centimeters (cm^3). When required to ensure good germination and healthy plants, a fungicide treatment and/or other chemical or physical treatment was applied. The plants were grown for 7-31 days (d) in a greenhouse with an approximate 15 hour (h) photoperiod which was maintained at about 23-29° C. during the day and 22-28° C. during the night. Nutrients (Peters Excel® 15-5-15 5-Ca2-Mg) and water were added on a regular basis and supplemental lighting was provided with overhead metal halide 1000-Watt lamps as necessary. The plants were employed for testing when they reached the first, second, or third true leaf stage.
Treatment requirements were calculated based upon the rates being tested, the concentration of active ingredient or acid equivalent in the formulation, and a 12 mL application volume at a rate of 187 L/ha.
as §2, §3
For treatments comprised of formulated and technical compounds, weighed amounts of the technical materials were placed individually in 25 mL glass vials and dissolved in a volume of 97:3 v/v acetone/DMSO to obtain 6× stock solutions, and measured amounts of the formulated compounds were placed individually in 25 mL glass vials and diluted in a volume of 1.5% (v/v) crop oil concentrate to obtain 6× stock solutions. […]

[4] = system: MEOPA - escoba blanca (Melochia parviflora); experiment: Field evaluation of postemergence herbicidal activity of mixtures in range and pasture (Colombia); assay type: in vivo; details: 14 DAA
Protocol: Field trials were conducted in pastures in Colombia using standard herbicide small plot research methodology. Plot size was typical for small plot research, varying from 2 meters (m) wide by 6 m long. There were 4 replicates per treatment. Soil type ranged from medium to heavy soil texture. Perennial pastures were sown by hand direct dry seeding as per normal local cultural practices. The pastures were grown using normal cultural practices for fertilization and maintenance to ensure good growth of the pastures and the weeds.
Treatments were applied by backpack sprayer using either compressed air or carbon dioxide (CO2), at spray pressures from […]. Spray tips were typically Flat Fan Teejet nozzles, such as TJ8003. Spray volumes used were 400 liters per hectare (L/ha). MEOPA plant size at application varied from 70 to 80 centimeters (cm) tall active growth at flowering stage.
For each treatment, the appropriate formulated product amount to treat the plot area, to achieve the desired application rate, based on unit area of application (hectare), was calculated, measured, and mixed in water prior to applying with the backpack sprayer. Treatments were rated as compared to the untreated control plots. 2,4-D was used as Invesamina 480 SL®. Compound I was formulated as a 10% weight percent active ingredient (wt ai %—100 grams ai per L (g ai/L); 95.94 g ae/L) suspension concentrate (SC) of the corresponding methyl ester.
For both Example 1 and Example 2, the Colby equation was used to determine the herbicidal effects expected from the mixtures (Colby, S. R. Calculation of the synergistic and antagonistic response of herbicide combinations. Weeds 1967, 15, 20-22.).
The following equation was used to calculate the expected activity of mixtures containing two active ingredients, A and B:
A=observed efficacy of active ingredient A at the same concentration as used in the mixture.
B=observed efficacy of active ingredient B at the same concentration as used in the mixture.

[5] = 2,4-D dimethyl amine 52.5 g ae/ha alone
[6] = 2,4-D dimethyl amine 105 g ae/ha alone
[7] = potassium salt 3.75 g ae/ha alone

Question: CNC.O=C(O)COc1ccc(Cl)cc1Cl [2,4-D (Dimethyl Amine), 2,4-D dimethylamine (DMA) salt] was tested. Which “LOLMU (% Control) Obs” value [1, 5] did it give?
Answer: Its value is 0%.

Question: What about the “LOLMU (% Control) Obs” value [1, 6] of the same molecule?
Answer: Its value is 0%.

Question: And the “ELEIN (% Control) Obs” value [2, 5]?
Answer: Its value is 0%.

Question: And the “ELEIN (% Control) Obs” value [2, 6]?
Answer: Its value is 0%.

Question: What about the “PANDI (% Control) Obs” value [3, 5] of the same molecule?
Answer: The value was 0%.

Question: What about the “PANDI (% Control) Obs” value [3, 6] of the same molecule?
Answer: Its value is 0%.

Question: And the “PANDI (% Control) Obs” value ([3]; 2,4-D dimethyl amine 210 g ae/ha alone)?
Answer: The value was 0%.

Question: With O=C(O)COc1ccc(Cl)cc1Cl [2,4-D, (2,4-dichlorophenoxy)acetic acid] as the molecule, how does the “MEOPA (% Control) Obs” value ([4]; 2,4-D 480 g ae/ha alone) read?
Answer: The value was 3.8%.

Question: With COc1c(Cl)ccc(-c2cc(N)c(Cl)c(C(=O)OCc3ccccc3)n2)c1F [Pyridine Carboxylic Acid (Benzyl Ester), benzyl ester of 4-amino-3-chloro-6-(4-chloro-2-fluoro-3-methoxy-phenyl)pyridine-2-carboxylic acid] as the molecule, how does the “ELEIN (% Control) Obs” value ([2]; benzyl ester 3.75 g ae/ha alone) read?
Answer: Its value is 0%.

Question: And the “ELEIN (% Control) Obs” value ([2]; benzyl ester 7.5 g ae/ha alone)?
Answer: Its value is 25%.

Question: Which “MEOPA (% Control) Obs” value ([4]; methyl ester 17.5 g ae/ha alone) does the source give for COC(=O)c1nc(-c2ccc(Cl)c(OC)c2F)cc(N)c1Cl [Pyridine Carboxylic Acid (Methyl Ester), halauxifen-methyl] here?
Answer: Its value is 48.5%.

Question: And the “MEOPA (% Control) Obs” value ([4]; methyl ester 35 g ae/ha alone)?
Answer: Its value is 63.1%.

Question: For COc1c(Cl)ccc(-c2cc(N)c(Cl)c(C(=O)[O-])n2)c1F.[K+] [potassium (K^+) salt of 4-amino-3-chloro-6-(4-chloro-2-fluoro-3-methoxy-phenyl)pyridine-2-carboxylic acid], which “LOLMU (% Control) Obs” value [1, 7] is on record?
Answer: The value was 15%.

Question: And the “LOLMU (% Control) Obs” value ([1]; potassium salt 7.5 g ae/ha alone)?
Answer: Its value is 35%.

Question: And the “PANDI (% Control) Obs” value [3, 7]?
Answer: The value was 75%.
